What was measured:
Caco-2 cells = experiment: in vitro
Description: (§1) The objective of this study was to evaluate the bidirectional Caco-2 permeability of three formulations of test article Pilocarpine at three pH levels (pH 5.7, 6.5, 7.4) using calibration curve quantitation.
(§2) Samples were analyzed by LC/MS/MS using an Waters Xevo TQ mass spectrometer coupled with an Acuity HPLC and a CTC PAL chilled autosampler, all controlled by MassLynx software (Waters). After separation on a C18 reverse phase (Waters Acquity HSS T3 2.1×50 mm […]) using an acetonitrile-water gradient system, peaks were analyzed by mass spectrometry (MS) using ESI ionization in MRM mode.
(§3) Tables 16-17 show the HPLC gradients used and the experiment conditions of the Caco-2 permeability test, respectively.
(§4) Caco-2 cells grown in tissue culture flasks were trypsinized, suspended in medium, and the suspensions were applied to wells of a Millipore 96 well plate. The cells were allowed to grow and differentiate for three weeks, feeding at 2-day intervals.
(§5) For Apical to Basolateral (A→B) permeability, the test article was added to the apical (A) side and amount of permeation was determined on the basolateral (B) side; for Basolateral to Apical (B→A) permeability, the test article was added to the B side and the amount of permeation was determined on the A side. […] Caco-2 cells were incubated with test articles in these buffers for 2 hours, and at the end of the assay, donor and receiver side solution samples were collected, quenched by 100% methanol containing an internal standard and centrifuged at 5000 rpm for 10 minutes at 4° C. Following centrifugation, the supernatant for donor and receiver side samples were analyzed by LC-MS/MS.
(§6) Data is expressed as permeability (Papp):
(§7) [formula] dQ/dt is rate of permeation, C0 is initial concentration of test article, and A is the area of monolayer.
(§8) In bidirectional permeability studies, Efflux Ratio (Re) is also calculated:
(§9) [formula] Re>2 indicates a potential substrate for P-gp or other active efflux transporters. The donor, dosing and receiver side sample concentrations were calculated based on the calibration curve prepared in buffer matrix in the range of 1-20,000 nM.

in vitro = conditions: human, Caco-2
Description: as §1, §2, §3, §4, §5, §6, §7, §8, §9

BCS permeability classification (Caco-2 cells) | Papp A→B at 2 h, 10 μM (in vitro) [×10⁻⁶ cm/s] | Papp B→A at 2 h, 10 μM (in vitro) [×10⁻⁶ cm/s] | efflux ratio at 2 h, 10 μM (in vitro) | Comments (permeability class) (Caco-2 cells) | Structure (SMILES)
high permeability | – | – | – | – | CC[C@@H]1C(=O)OC[C@@H]1Cc1cncn1C [pilocarpine, (3S,4R)-3-Ethyl-4-((1-methyl-1H-imidazol-5-yl)methyl)dihydrofuran-2(3H)-one]
– | 19.4 | 42.7 | 2.22 | High permeability | COCCc1ccc(OCC(O)CNC(C)C)cc1 (stereo not drawn) [Metoprolol]
– | 0.585 | 3.13 | 5.41 | Low permeability | CNC(=C[N+](=O)[O-])NCCSCc1ccc(CN(C)C)o1 [Ranitidine]
